Results reported in publication PMC6753678, “Fueling Open Innovation for Malaria Transmission-Blocking Drugs: Hundreds of Molecules Targeting Early Parasite Mosquito Stages” (Frontiers in Microbiology, 2019).
Read-outs that look alike come from different tables or passages of the source.

Columns and labels:
[1] = system: 3D7-strain P. falciparum asexual parasites; test: P. falciparum asexual growth inhibition assay (Pf GIA); format: cell-based, Plasmodium falciparum; conditions: dose response confirmation; read-out: Pf asexual growth inhibition assays IC50
In short: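 Read-out was lactate dehydrogenase activity measured by absorbance at 650 nm after freezing and thawing, against 50 μM chloroquine and DMSO controls. Before that, asexual 3D7 cultures (0.25% parasitemia, 2% hematocrit) had 72 h dose-response compound exposure at 37°C in 5% CO2/5% O2/90% N2; three independent replicates averaged.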

[2] = system: HepG2 cells; test: HepG2 cytotoxicity assay; conditions: for IC50: read-out: HepG2 cytotoxicity assay IC50, dose response confirmation; for HepG2 cytoxicity: value reported with the Pb ODA screen, this manuscript
In short: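 Percent inhibition derived from fluorescent viability readout, normalised to DMSO (negative) and 50 μM doxorubicin (positive). Compound incubation lasted 48 h at 37°C, 5% CO2, with 2,500 HepG2 cells/well in MEM plus 10% FBS and 1% NEAA.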

[3] = system: P. berghei ookinete development; conditions: for Is compound selective in assay? Pb ODA active?: 1: YES, 0: NO; for % inhibition, Replicate A / % inhibition, Replicate B: primary screen at 1 μM
[4] = system: P. falciparum late stage (stages IV-V) gametocytes; parameters: method as in Almela et al 2016; conditions: ref Almela et al 2016, read-out: Pf GCT ATP IC50, cited from earlier work
[5] = system: P. falciparum female gametocytes; parameters: method as in Miguel-Blanco et al 2017; conditions: ref Miguel-Blanco et al 2017, read-out: Pf FGAA IC50, cited from earlier work
[6] = system: HepG2 cells; conditions: cited from earlier work
[7] = system: P. falciparum female gametocytes; test: P. falciparum female gametogenesis assay (Pf FGAA); conditions: 1: YES; 0: NO
[8] = system: P. falciparum late stage (stages IV-V) gametocytes; test: P. falciparum late stage gametocyte ATP depletion assay (Pf GC-ATP); conditions: 1: YES; 0: NO
[9] = HepG2 cytotoxicity unified across the three screens
[10] = read-out: Pb ODA IC50, this manuscript
[11] = read-out: Pb Ookinete development assay IC50, dose response confirmation
[12] = value reported with the Pf FGAA screen, ref Miguel-Blanco et al 2017
[13] = value reported with the Pf GCT ATP screen, ref Almela et al 2016

| Structure (SMILES) | IC50 [1] [nM] | Unified cytotox [2, 9] [µM] | IC50 [2] [nM] | HepG2 cytoxicity [2] [µM] | Is compound selective in assay? Pb ODA active? [3] | % inhibition, Replicate A [3] [%] | % inhibition, Replicate B [3] [%] | IC50 [3, 10] [nM] | IC50 [3, 11] [nM] | IC50 ([4]; TCAMS screen comparison) [nM] | IC50 ([5]; TCAMS screen comparison) [nM] | HepG2 cytoxicity [6, 12] [µM] | HepG2 cytoxicity [6, 13] [µM] | Is compound selective in assay? Pf FGAA active? [7] | Is compound selective in assay? Pf GC-ATP active? [8] | Unified cytotox ([2]; HepG2 values of the three screens unified) [µM] | IC50 [4] [nM] | IC50 [5] [nM] | HepG2 cytoxicity (Pf GCT ATP screen) ([6]; HepG2, ref Almela et al 2016) [µM] | HepG2 cytoxicity (Pf FGAA screen) ([6]; HepG2, ref Miguel-Blanco et al 2017) [µM] |
| --- | --- | --- | --- | --- | --- | --- | --- | --- | --- | --- | --- | --- | --- | --- | --- | --- | --- | --- | --- | --- |
| O=C(O)CCSSc1cccc[n+]1[O-] [TCMDC-141973] | 1650 | 19.25 | 30900 | 30.90 | 1 (1: YES) | 62.58 | 47.23 | 1910 | 1910 | 270 | 40 | 19.05 | 7.8 | 1 (1: YES) | 1 (1: YES) |  |  |  |  |  |
| COc1cc(-c2cc(-c3ccc(S(C)(=O)=O)cc3)cnc2N)ccc1O [TCMDC-133343] | 242 | 49.62 | 57500 | 57.54 | 1 (1: YES) | 63.88 | 36.72 | 2110 | 2110 | 1240 | 390 | 41.69 | >25 | 1 (1: YES) | 1 (1: YES) |  |  |  |  |  |
| CC(=O)c1ccc2nc[nH]c(=O)c2c1 [TCMDC-138172] | 287 | 3.74 | 1240 | 1.24 | 0 (0: NO) | 76.19 | 65.80 | 500 | 503 | 400 | 980 | 6.24 | <1.56 | 0 (0: NO) | 0 (0: NO) |  |  |  |  |  |
| CC1(C)CC(NCCCCCCCOc2ccc(OCc3ccccc3)cc2)CC(C)(C)N1.Cl [TCMDC-138958] |  | 2.88 |  |  |  | 59.61 | 10.57 |  |  | 680 | 1230 | 2.75 | 3 | 0 (0: NO) | 0 (0: NO) |  |  |  |  |  |
| CCc1c(CCNCCCCCCNCCc2ccc([N+](=O)[O-])cc2)ccc(OC)c1OC.Cl [TCMDC-132066] | 675 | 5.46 | 5130 | 5.13 | 0 (0: NO) | 25.72 | 55.23 | 6610 | 6600 | 540 | 1460 | 4.57 | 6.67 | 0 (0: NO) | 1 (1: YES) |  |  |  |  |  |
| Nc1nc(N)c2c(ccc3c2ccn3Cc2ccc(-c3ccccc3)cc2)n1 [TCMDC-137813] |  | 1.38 |  |  |  | 53.67 | 5.32 |  |  | 1450 | 2010 | 1.16 | 1.6 | 0 (0: NO) | 0 (0: NO) |  |  |  |  |  |
| CCOc1ccc2nc3cc(NC(=O)c4ccco4)ccc3c(N)c2c1 [TCMDC-125004] |  | 17.72 |  |  |  |  |  |  |  | 190 | 4550 | 25.15 | 10.3 | 0 (0: NO) | 1 (1: YES) |  |  |  |  |  |
| CC(Cc1ccc(CNC(=O)c2ccc(CC(C)NCCc3cccc(Cl)c3)cc2)cc1)NCCc1cccc(Cl)c1 (centres unmarked) [TCMDC-139659] |  | 2.71 |  |  |  |  |  |  |  | 570 | 860 | 2.26 | 3.15 | 0 (0: NO) | 0 (0: NO) |  |  |  |  |  |
| COc1ccc2nc(-c3ccccc3)cc(NCCCNc3cc(-c4ccccc4)nc4ccc(OC)cc34)c2c1.Cl [TCMDC-137734] |  | 38.15 |  |  |  |  |  |  |  | 1210 | 5600 | 70.79 | 5.5 | 0 (0: NO) | 1 (1: YES) |  |  |  |  |  |
| Br.CCCCc1ccc(CCNCCCCCCNCCc2ccc(O)c(O)c2)cc1 [TCMDC-131281] |  | 6.41 |  |  |  |  |  |  |  | 540 | 2150 | 4.63 | 8.19 | 0 (0: NO) | 1 (1: YES) |  |  |  |  |  |
| CC(Cc1ccc(OCCCCOc2ccccc2)cc1)NCCC1CCCN1C (centres unmarked) [TCMDC-140017] |  | 1.12 |  |  |  |  |  |  |  | 95 | 200 | 1.12 | <1.56 | 0 (0: NO) | 1 (1: YES) |  |  |  |  |  |
| Cc1cccc2nc(-c3ccc(-c4ccc(CNCc5ccc(CN)cc5)cc4)s3)[nH]c12.O=C(O)C(F)(F)F [TCMDC-132809] |  | 19.40 |  |  |  |  |  |  |  | 860 | 470 | 14.79 | 24 | 1 (1: YES) | 1 (1: YES) |  |  |  |  |  |
| CN(CCCNCc1ccc2ccccc2c1)CCCNCc1ccc2ccccc2c1.Cl [TCMDC-137908] |  |  |  |  |  |  |  |  |  |  |  |  |  | 1 (1: YES) | 1 (1: YES) | 4.85 | 50 | 90 | 4.68 | 5.01 |
| COc1cc2nc(N3CCN(c4nc(N)c5cc(OC)c(OC)cc5n4)CC3)nc(N)c2cc1OC [TCMDC-123865] |  | 52.49 |  |  |  |  |  |  |  | 260 | 580 | 52.49 | >25 | 1 (1: YES) | 1 (1: YES) |  |  |  |  |  |
